Reference: patent US20110039721A1, “METHOD FOR PREDICTION ABOUT CARCINOGENICITY OF SUBSTANCE IN RODENT” (Chemicals Evaluation and Research Institute, priority 2007, published 2011)

Experiments:
[1] = test system: liver; conditions: in vivo; cited from earlier work
[2] = test system: mRNA expressed from the genes (A) to (D) in rat liver; experiment: Behavior of genes (mRNA expression level, oligo-DNA microarray) in rat liver after 28-day oral administration; assay type: in vivo
In short: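 Groups of four male F344 SPF rats aged 5 weeks are gavaged once a day for 28 days with test chemical in solvent or with solvent alone at equal volume. Total RNA comes from liver taken on day 28. Fold change of 1.5 or 1/1.5 versus control, directionally consistent, defines significance.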

[3] = test system: rodent; conditions: in vivo; cited from earlier work
[4] = gene group (A), Unigene No. Rn.167075, mRNA vs vehicle control group
[5] = gene group (C), Unigene No. Rn.120914, mRNA vs vehicle control group

Structure (SMILES): Nc1ccc(N=Nc2ccccc2)cc1 [TS075, 4-Aminoazobenzene]
- Liver carcinogenicity [1]: Cr+
- Behavior of gene caused by administration of chemical substance ([2]; Gene No. 154, Rn.185941, group (C)): −
- Behavior of gene caused by administration of chemical substance ([2]; Gene No. 533, Rn.106184, group (C)): −
- Behavior of gene caused by administration of chemical substance ([2]; Gene No. 725, Rn.108075, group (C)): −
- Behavior of gene caused by administration of chemical substance ([2]; Gene No. 813, Rn.201760, group (C)): −
- Behavior of gene caused by administration of chemical substance ([2]; Gene No. 893, Rn.164817, group (C)): +
- Behavior of gene caused by administration of chemical substance ([2]; Gene No. 1119, Rn.9757, group (C)): −
- Behavior of gene caused by administration of chemical substance ([2]; Gene No. 1131, Rn.144946, group (C)): −
- Behavior of gene caused by administration of chemical substance ([2]; Gene No. 1163, Rn.11766, group (C)): +
- Behavior of gene caused by administration of chemical substance ([2]; Gene No. 1334, Rn.120914, group (C)): −
- Behavior of gene caused by administration of chemical substance ([2]; Gene No. 1494, Rn.1430, group (B)): −
- Behavior of gene caused by administration of chemical substance ([2]; Gene No. 1562, Rn.14744, group (C)): −
- Behavior of gene caused by administration of chemical substance ([2]; Gene No. 1741, Rn.1647, group (C)): −
- Behavior of gene caused by administration of chemical substance ([2]; Gene No. 1993, Rn.18728, group (C)): +
- Behavior of gene caused by administration of chemical substance ([2]; Gene No. 2026, Rn.167075, group (A)): −
- Behavior of gene caused by administration of chemical substance ([2]; Gene No. 2045, Rn.19329, group (B)): −
- Behavior of gene caused by administration of chemical substance ([2]; Gene No. 2203, Rn.21240, group (B)): +
- Behavior of gene caused by administration of chemical substance ([2]; Gene No. 2494, Rn.23969, group (C)): −
- Behavior of gene caused by administration of chemical substance ([2]; Gene No. 2546, Rn.24561, group (C)): +
- Behavior of gene caused by administration of chemical substance ([2]; Gene No. 3776, Rn.43232, group (C)): −
- Behavior of gene caused by administration of chemical substance ([2]; Gene No. 3929, Rn.4620, group (C)): +
- Behavior of gene caused by administration of chemical substance ([2]; Gene No. 4095, Rn.119024, group (C)): +
- Behavior of gene caused by administration of chemical substance ([2]; Gene No. 4218, Rn.167075, group (A)): −
- Behavior of gene caused by administration of chemical substance ([2]; Gene No. 4846, Rn.144554, group (A)): −
- Behavior of gene caused by administration of chemical substance ([2]; Gene No. 4973, Rn.118529, group (C)): +
- Behavior of gene caused by administration of chemical substance ([2]; Gene No. 5600, Rn.9836, group (A)): −
- Behavior of gene caused by administration of chemical substance ([2]; Gene No. 5634, Rn.9862, group (C)): −
- Behavior of gene caused by administration of chemical substance ([2]; Gene No. 5726, Rn.9939, group (D)): −
- Behavior of gene caused by administration of chemical substance ([2]; Gene No. 5878, Rn.143213, group (C)): −
- Behavior of gene caused by administration of chemical substance ([2]; Gene No. 6026, Rn.167685, group (C)): −
- Behavior of gene caused by administration of chemical substance ([2]; Gene No. 6182, Rn.5834, group (A)): −
- Behavior of gene caused by administration of chemical substance ([2]; Gene No. 6303, Rn.123063, group (C)): −
- Behavior of gene caused by administration of chemical substance ([2]; Gene No. 6620, Rn.120914, group (C)): −
- Behavior of gene caused by administration of chemical substance ([2]; Gene No. 6742, Rn.9779, group (C)): −
- Carcinogenicity [3]: C+

Structure (SMILES): Cc1c(N)cccc1N [TS005, 2,6-Diaminotoluene]
- Liver carcinogenicity [1]: Cr−
- Behavior of gene caused by administration of chemical substance, Gene No. 4846 ([2]; gene group (A), Unigene No. Rn.144554, mRNA vs vehicle control group): −
- Behavior of gene caused by administration of chemical substance, Gene No. 2026 [2, 4]: −
- Behavior of gene caused by administration of chemical substance, Gene No. 4218 [2, 4]: −
- Behavior of gene caused by administration of chemical substance, Gene No. 6182 ([2]; gene group (A), Unigene No. Rn.5834, mRNA vs vehicle control group): −
- Behavior of gene caused by administration of chemical substance, Gene No. 5600 ([2]; gene group (A), Unigene No. Rn.9836, mRNA vs vehicle control group): −
- Behavior of gene caused by administration of chemical substance, Gene No. 1494 ([2]; gene group (B), Unigene No. Rn.1430, mRNA vs vehicle control group): −
- Behavior of gene caused by administration of chemical substance, Gene No. 2045 ([2]; gene group (B), Unigene No. Rn.19329, mRNA vs vehicle control group): −
- Behavior of gene caused by administration of chemical substance, Gene No. 2203 ([2]; gene group (B), Unigene No. Rn.21240, mRNA vs vehicle control group): −
- Behavior of gene caused by administration of chemical substance, Gene No. 533 ([2]; gene group (C), Unigene No. Rn.106184, mRNA vs vehicle control group): −
- Behavior of gene caused by administration of chemical substance, Gene No. 725 ([2]; gene group (C), Unigene No. Rn.108075, mRNA vs vehicle control group): −
- Behavior of gene caused by administration of chemical substance, Gene No. 1163 ([2]; gene group (C), Unigene No. Rn.11766, mRNA vs vehicle control group): −
- Behavior of gene caused by administration of chemical substance, Gene No. 4973 ([2]; gene group (C), Unigene No. Rn.118529, mRNA vs vehicle control group): −
- Behavior of gene caused by administration of chemical substance, Gene No. 4095 ([2]; gene group (C), Unigene No. Rn.119024, mRNA vs vehicle control group): −
- Behavior of gene caused by administration of chemical substance, Gene No. 1334 [2, 5]: −
- Behavior of gene caused by administration of chemical substance, Gene No. 6620 [2, 5]: −
- Behavior of gene caused by administration of chemical substance, Gene No. 6303 ([2]; gene group (C), Unigene No. Rn.123063, mRNA vs vehicle control group): −
- Behavior of gene caused by administration of chemical substance, Gene No. 5878 ([2]; gene group (C), Unigene No. Rn.143213, mRNA vs vehicle control group): −
- Behavior of gene caused by administration of chemical substance, Gene No. 1131 ([2]; gene group (C), Unigene No. Rn.144946, mRNA vs vehicle control group): +
- Behavior of gene caused by administration of chemical substance, Gene No. 1562 ([2]; gene group (C), Unigene No. Rn.14744, mRNA vs vehicle control group): −
- Behavior of gene caused by administration of chemical substance, Gene No. 1741 ([2]; gene group (C), Unigene No. Rn.1647, mRNA vs vehicle control group): −
- Behavior of gene caused by administration of chemical substance, Gene No. 893 ([2]; gene group (C), Unigene No. Rn.164817, mRNA vs vehicle control group): −
- Behavior of gene caused by administration of chemical substance, Gene No. 6026 ([2]; gene group (C), Unigene No. Rn.167685, mRNA vs vehicle control group): −
- Behavior of gene caused by administration of chemical substance, Gene No. 154 ([2]; gene group (C), Unigene No. Rn.185941, mRNA vs vehicle control group): −
- Behavior of gene caused by administration of chemical substance, Gene No. 1993 ([2]; gene group (C), Unigene No. Rn.18728, mRNA vs vehicle control group): −
- Behavior of gene caused by administration of chemical substance, Gene No. 813 ([2]; gene group (C), Unigene No. Rn.201760, mRNA vs vehicle control group): −
- Behavior of gene caused by administration of chemical substance, Gene No. 2494 ([2]; gene group (C), Unigene No. Rn.23969, mRNA vs vehicle control group): −
- Behavior of gene caused by administration of chemical substance, Gene No. 2546 ([2]; gene group (C), Unigene No. Rn.24561, mRNA vs vehicle control group): −
- Behavior of gene caused by administration of chemical substance, Gene No. 3776 ([2]; gene group (C), Unigene No. Rn.43232, mRNA vs vehicle control group): −
- Behavior of gene caused by administration of chemical substance, Gene No. 3929 ([2]; gene group (C), Unigene No. Rn.4620, mRNA vs vehicle control group): −
- Behavior of gene caused by administration of chemical substance, Gene No. 1119 ([2]; gene group (C), Unigene No. Rn.9757, mRNA vs vehicle control group): −
- Behavior of gene caused by administration of chemical substance, Gene No. 6742 ([2]; gene group (C), Unigene No. Rn.9779, mRNA vs vehicle control group): −
- Behavior of gene caused by administration of chemical substance, Gene No. 5634 ([2]; gene group (C), Unigene No. Rn.9862, mRNA vs vehicle control group): −
- Behavior of gene caused by administration of chemical substance, Gene No. 5726 ([2]; gene group (D), Unigene No. Rn.9939, mRNA vs vehicle control group): −
- Carcinogenicity [3]: C−

Structure (SMILES): O=P(OCCCl)(OCCCl)OCCCl [TS088, Tris(2-chloroethyl)phosphate]
- Liver carcinogenicity [1]: Cr−
- Behavior of gene caused by administration of chemical substance ([2]; rat, in vivo): − and +
- Carcinogenicity [3]: C+

Structure (SMILES): Cl[C@H]1[C@H](Cl)[C@@H](Cl)[C@@H](Cl)[C@H](Cl)[C@H]1Cl [TS057, Lindane]
- Liver carcinogenicity [1]: Cr−
- Behavior of gene caused by administration of chemical substance, Gene No. 154 ([2]; rat, in vivo): −
- Behavior of gene caused by administration of chemical substance, Gene No. 533 ([2]; rat, in vivo): +
- Behavior of gene caused by administration of chemical substance, Gene No. 725 ([2]; rat, in vivo): −
- Behavior of gene caused by administration of chemical substance, Gene No. 813 ([2]; rat, in vivo): −
- Behavior of gene caused by administration of chemical substance, Gene No. 893 ([2]; rat, in vivo): −
- Behavior of gene caused by administration of chemical substance, Gene No. 1119 ([2]; rat, in vivo): −
- Behavior of gene caused by administration of chemical substance, Gene No. 1131 ([2]; rat, in vivo): +
- Behavior of gene caused by administration of chemical substance, Gene No. 1163 ([2]; rat, in vivo): −
- Behavior of gene caused by administration of chemical substance, Gene No. 1334 ([2]; rat, in vivo): −
- Behavior of gene caused by administration of chemical substance, Gene No. 1494 ([2]; rat, in vivo): −
- Behavior of gene caused by administration of chemical substance, Gene No. 1562 ([2]; rat, in vivo): −
- Behavior of gene caused by administration of chemical substance, Gene No. 1741 ([2]; rat, in vivo): −
- Behavior of gene caused by administration of chemical substance, Gene No. 1993 ([2]; rat, in vivo): −
- Behavior of gene caused by administration of chemical substance, Gene No. 2026 ([2]; rat, in vivo): −
- Behavior of gene caused by administration of chemical substance, Gene No. 2045 ([2]; rat, in vivo): −
- Behavior of gene caused by administration of chemical substance, Gene No. 2203 ([2]; rat, in vivo): −
- Behavior of gene caused by administration of chemical substance, Gene No. 2494 ([2]; rat, in vivo): −
- Behavior of gene caused by administration of chemical substance, Gene No. 2546 ([2]; rat, in vivo): −
- Behavior of gene caused by administration of chemical substance, Gene No. 3776 ([2]; rat, in vivo): −
- Behavior of gene caused by administration of chemical substance, Gene No. 3929 ([2]; rat, in vivo): −
- Behavior of gene caused by administration of chemical substance, Gene No. 4095 ([2]; rat, in vivo): −
- Behavior of gene caused by administration of chemical substance, Gene No. 4218 ([2]; rat, in vivo): −
- Behavior of gene caused by administration of chemical substance, Gene No. 4846 ([2]; rat, in vivo): −
- Behavior of gene caused by administration of chemical substance, Gene No. 4973 ([2]; rat, in vivo): −
- Behavior of gene caused by administration of chemical substance, Gene No. 5600 ([2]; rat, in vivo): −
- Behavior of gene caused by administration of chemical substance, Gene No. 5634 ([2]; rat, in vivo): −
- Behavior of gene caused by administration of chemical substance, Gene No. 5726 ([2]; rat, in vivo): −
- Behavior of gene caused by administration of chemical substance, Gene No. 5878 ([2]; rat, in vivo): −
- Behavior of gene caused by administration of chemical substance, Gene No. 6026 ([2]; rat, in vivo): +
- Behavior of gene caused by administration of chemical substance, Gene No. 6182 ([2]; rat, in vivo): −
- Behavior of gene caused by administration of chemical substance, Gene No. 6303 ([2]; rat, in vivo): +
- Behavior of gene caused by administration of chemical substance, Gene No. 6620 ([2]; rat, in vivo): −
- Behavior of gene caused by administration of chemical substance, Gene No. 6742 ([2]; rat, in vivo): −
- Carcinogenicity [3]: C−
